Values quoted from earlier work, collected in patent US6555530B1, “Use of estrogens and delta-gonadien-21-Ol-3,20-diones for treating insulin dependent and non-insulin dependent diabetes” (Novo Nordisk A/S, priority 1999, dated 2003).

Experiments:
[1] = tested on: streptozotocin diabetic rats; details: implanted testosterone
[2] = tested on: intact or ovarectomized female rats; details: correlated to morphological changes in muscle

## C[C@]12CC[C@H]3[C@@H](CCC4=CC(=O)CC[C@@]43C)[C@@H]1CC[C@@H]2O [Testosterone]
[1]
  glycemic control by residual insulin: antagonized the ability of residual insulin to maintain glycemic control
[2]
  insulin resistance: marked insulin resistance
